The record followed here is patent EP2058306A1, “Heteroaryl-substituted 2-pyridinyl-methylamine derivatives” (SCHWARZ PHARMA AG, priority 2007, dated 2009).

By Ki is commonly meant a dissociation constant, usually derived from enzyme kinetics or from competition with a known ligand. The term EC50 denotes the concentration that produces a half-maximal response.

Where two headings read alike, the source gives them in different places. Where only a bound is given, the exact number is not on record here.

The target of test [1] is T1, dopamine D1 receptor (Sus scrofa, UniProt P50130).
T1 construct: native membrane preparations from porcine striatum; from tissue; host or cells: porcine striatum
T1 sequence (P50130 whole entry): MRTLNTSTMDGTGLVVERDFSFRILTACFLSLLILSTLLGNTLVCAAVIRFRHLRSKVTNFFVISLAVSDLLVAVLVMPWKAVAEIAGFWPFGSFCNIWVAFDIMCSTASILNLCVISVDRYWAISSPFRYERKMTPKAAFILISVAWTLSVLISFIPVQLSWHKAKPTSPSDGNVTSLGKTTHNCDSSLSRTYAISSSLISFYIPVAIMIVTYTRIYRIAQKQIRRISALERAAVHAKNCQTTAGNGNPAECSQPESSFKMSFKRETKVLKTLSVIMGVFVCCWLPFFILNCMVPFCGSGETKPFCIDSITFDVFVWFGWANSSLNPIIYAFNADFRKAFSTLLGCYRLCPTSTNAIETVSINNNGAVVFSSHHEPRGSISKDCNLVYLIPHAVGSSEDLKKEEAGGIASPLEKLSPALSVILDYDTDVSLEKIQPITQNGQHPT
Nature of the test: radioligand binding assay, dopamine D1 receptor, [3H]SCH 23390. As to conditions: porcine striatum membranes, mean of two to five experiments in triplicate, read-out: Ki D1. From the text:
(§1) Biological activity of the compounds has been determined in radioligand binding assays. These experiments have been done according to methods which are described in literature (Hübner, H. et al., J. Med. Chem. (2000), 43, 7562). For the determination of binding affinity to the receptors of the dopamine D2 family membranes were established carrying the human D2long, D2short, D3 or D4.4 receptor subtype stably expressed in Chinese hamster ovary cell lines. In principle, the binding experiments started when incubating an appropriate amount of membrane with the radioligand [^3H]spiperone and the particular test compounds used in a wide range of different concentrations from subnanomolar up to micromolar ones. In the same way, binding affinities of the test compounds to the dopamine D1 receptor were determined when using native membrane preparations from porcine striatum and the D1 selective radioligand [^3H]SCH 23390.
(§2) The results of the binding experiments are summarized in Table 1 as mean values of two to five individual experiments each done in triplicate and expressed as Ki values in nM.

For test [2], the target named is human D2long, D2short (Homo sapiens, UniProt P14416). The test is described as follows: biochemical. The test is classed as binding. The conditions noted are these: CHO cell membranes, [3H]spiperone; mean of two to five experiments in triplicate; read-out: Ki D2. As to the method:
as §1, with “These” for “Biological activity of the compounds has been determined in radioligand binding assays. These”, “ones.” for “ones. In the same way, binding affinities of the test compounds to the dopamine D1 receptor were determined when using native membrane preparations from porcine striatum and the D1 selective radioligand [^3H]SCH 23390.”

Test [3] addresses human D3 (Homo sapiens, UniProt P35462). The test is described as follows: radioligand binding assay, dopamine D3 receptor, [3H]spiperone. The conditions noted are these: CHO cell membranes, mean of two to five experiments in triplicate, read-out: Ki D3. As to the method: as §1, with “These” for “Biological activity of the compounds has been determined in radioligand binding assays. These”, “ones.” for “ones. In the same way, binding affinities of the test compounds to the dopamine D1 receptor were determined when using native membrane preparations from porcine striatum and the D1 selective radioligand [^3H]SCH 23390.”

For test [4], the target named is T2, human D4.4 (Homo sapiens, UniProt P21917).
T2 sequence (P21917 1-419): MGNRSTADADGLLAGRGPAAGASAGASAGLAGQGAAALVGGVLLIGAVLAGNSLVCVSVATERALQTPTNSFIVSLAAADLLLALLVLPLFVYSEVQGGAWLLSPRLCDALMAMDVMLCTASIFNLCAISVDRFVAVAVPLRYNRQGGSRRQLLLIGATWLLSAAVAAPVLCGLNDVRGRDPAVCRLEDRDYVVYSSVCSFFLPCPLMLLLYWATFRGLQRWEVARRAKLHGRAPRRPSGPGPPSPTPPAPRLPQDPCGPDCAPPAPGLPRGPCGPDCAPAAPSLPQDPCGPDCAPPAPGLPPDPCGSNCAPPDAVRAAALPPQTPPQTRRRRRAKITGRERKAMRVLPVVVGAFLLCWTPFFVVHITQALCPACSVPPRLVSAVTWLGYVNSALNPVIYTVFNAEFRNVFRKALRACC
Nature of the test: radioligand binding assay, dopamine D4.4 receptor, [3H]spiperone. As to conditions: CHO cell membranes, mean of two to five experiments in triplicate, read-out: Ki D4.4.
Excerpt: as §1, §2

In test [5] the target is T3, 5-HT1A (Sus scrofa, UniProt A0A4X1UTF5).
T3 construct: membrane preparations from porcine cortex; from tissue; host or cells: porcine cortex
T3 sequence (A0A4X1UTF5 1-422): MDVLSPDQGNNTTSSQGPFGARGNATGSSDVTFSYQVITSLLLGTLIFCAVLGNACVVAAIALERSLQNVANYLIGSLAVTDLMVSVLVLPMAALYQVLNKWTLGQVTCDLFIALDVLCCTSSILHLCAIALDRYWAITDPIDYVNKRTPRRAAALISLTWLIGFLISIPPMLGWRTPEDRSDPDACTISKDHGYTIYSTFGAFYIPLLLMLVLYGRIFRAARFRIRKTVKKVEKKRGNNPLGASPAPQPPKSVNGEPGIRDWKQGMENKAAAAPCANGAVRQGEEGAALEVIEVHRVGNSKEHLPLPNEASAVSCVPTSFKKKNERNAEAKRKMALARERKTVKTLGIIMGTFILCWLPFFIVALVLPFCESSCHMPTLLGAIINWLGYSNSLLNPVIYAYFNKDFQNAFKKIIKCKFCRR
Nature of the test: radioligand binding assay, serotonin 5-HT1A receptor, [3H]WAY 100635. As to conditions: porcine cortex membranes, mean of two to five experiments in triplicate, read-out: Ki 5-HT1a. As to the method: (§3) The investigation of receptor binding to the serotonin and adrenergic receptors was done according to a published procedure (Heindl, C. et al., Tetrahedron: Asymmetry (2003), 14, 3141-3152). In detail, for the determination of the binding properties to serotonin receptors membrane preparations from porcine cortex was incubated with the 5-HT1A selective radioligand [^3H]WAY 100635 or with the 5-HT2 selective compound [^3H]ketanserin. The measurement of alpha-1 and alpha-2 receptor binding was achieved when utilizing porcine cortical membranes and the selective radioligands [^3H]prazosin (for alpha-1) and [^3H]RX821002 in an assay similar to that described above.
as §2

In test [6] the target is T4, 5-HT2 (Sus scrofa, UniProt P50129).
T4 construct: membrane preparations from porcine cortex; from tissue; host or cells: porcine cortex
T4 sequence (P50129 whole entry): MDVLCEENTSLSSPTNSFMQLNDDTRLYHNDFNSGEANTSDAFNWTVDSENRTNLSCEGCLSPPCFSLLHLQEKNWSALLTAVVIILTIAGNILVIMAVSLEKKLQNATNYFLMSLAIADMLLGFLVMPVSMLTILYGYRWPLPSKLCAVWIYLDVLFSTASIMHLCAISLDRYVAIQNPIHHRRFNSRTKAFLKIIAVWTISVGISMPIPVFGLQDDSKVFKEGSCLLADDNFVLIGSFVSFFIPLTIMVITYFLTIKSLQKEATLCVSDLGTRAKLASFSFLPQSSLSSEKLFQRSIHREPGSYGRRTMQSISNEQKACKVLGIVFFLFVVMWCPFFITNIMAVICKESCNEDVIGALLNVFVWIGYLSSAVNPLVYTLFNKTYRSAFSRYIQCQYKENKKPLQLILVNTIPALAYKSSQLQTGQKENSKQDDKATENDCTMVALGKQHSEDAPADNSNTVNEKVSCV
Nature of the test: radioligand binding assay, serotonin 5-HT2 receptor, [3H]ketanserin. Set-up: species or system porcine.

Test [7] concerns the target alpha-1. Nature of the test: radioligand binding assay, adrenergic alpha-1 receptor, [3H]prazosin. As to conditions: porcine cortical membranes, mean of two to five experiments in triplicate, read-out: Ki alpha1. As to the method:
as §3, §2

Test [8] deals with T5, human 5-HT1A receptor (Homo sapiens, UniProt P08908).
T5 construct: expressed in transfected cells
T5 sequence (P08908 1-422): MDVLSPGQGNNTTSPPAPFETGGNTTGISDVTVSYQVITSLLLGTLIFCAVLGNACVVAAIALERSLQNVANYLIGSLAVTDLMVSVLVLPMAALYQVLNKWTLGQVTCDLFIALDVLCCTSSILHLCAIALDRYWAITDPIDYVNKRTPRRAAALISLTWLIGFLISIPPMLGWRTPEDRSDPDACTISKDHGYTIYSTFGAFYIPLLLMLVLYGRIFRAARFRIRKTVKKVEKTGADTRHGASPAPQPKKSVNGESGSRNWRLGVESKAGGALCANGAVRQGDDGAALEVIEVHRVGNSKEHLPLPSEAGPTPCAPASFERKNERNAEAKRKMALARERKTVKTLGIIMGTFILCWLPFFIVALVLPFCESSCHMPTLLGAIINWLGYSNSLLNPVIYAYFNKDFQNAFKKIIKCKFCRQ
The test is described as follows: [35S]GTPγS assay of functional activity at the 5-HT1A receptor. The test is classed as biochemical. The conditions noted are these: membranes from CHO cells expressing human 5-HT1A receptor; for 5-HT1A stimulated [35S]GTPγS binding intrinsic effect: % activity of serotonin; for EC50: read-out: 5-HT1A stimulated [35S]GTPγS binding EC50 value. As to the method: In detail, membranes from CHO (Chinese hamster ovary) cells stably expressing the human 5-HT1A receptor were stimulated with an increasing concentration of test compounds used in a range of subnanomolar to micromolar concentrations in the presence of radioactive [^35S]GTPγ. The amount of bound radioactivity which indicates the amount of stimulation of the receptor was determined after transferring the membranes to filters by scintillation counting. Dose response correlations could be derived and the particular stimulation of the receptor was compared to the maximum effect of the reference compound and physiological ligand serotonin.
Table 2: Intrinsic activities of the compounds of this invention at the serotonin 5-HT1A receptor determined in a [35S]GTPγS assay

The mark [9] stands for this setting: porcine cortex membranes, [3H]ketanserin, mean of two to five experiments in triplicate, read-out: Ki 5-HT2.

Chain of human D2long, D2short (P14416 whole entry): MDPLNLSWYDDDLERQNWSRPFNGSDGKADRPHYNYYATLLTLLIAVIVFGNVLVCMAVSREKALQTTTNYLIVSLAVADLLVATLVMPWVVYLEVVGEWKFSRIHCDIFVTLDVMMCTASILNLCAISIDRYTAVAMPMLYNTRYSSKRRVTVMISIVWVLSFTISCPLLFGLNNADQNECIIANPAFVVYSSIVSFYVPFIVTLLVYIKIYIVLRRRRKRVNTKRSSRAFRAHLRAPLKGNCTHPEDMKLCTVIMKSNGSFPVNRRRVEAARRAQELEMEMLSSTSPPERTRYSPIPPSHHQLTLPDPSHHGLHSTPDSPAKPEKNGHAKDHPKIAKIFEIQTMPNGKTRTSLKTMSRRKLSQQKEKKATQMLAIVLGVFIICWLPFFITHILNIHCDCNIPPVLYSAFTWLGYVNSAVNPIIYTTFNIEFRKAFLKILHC
Chain of human D3 (P35462 whole entry): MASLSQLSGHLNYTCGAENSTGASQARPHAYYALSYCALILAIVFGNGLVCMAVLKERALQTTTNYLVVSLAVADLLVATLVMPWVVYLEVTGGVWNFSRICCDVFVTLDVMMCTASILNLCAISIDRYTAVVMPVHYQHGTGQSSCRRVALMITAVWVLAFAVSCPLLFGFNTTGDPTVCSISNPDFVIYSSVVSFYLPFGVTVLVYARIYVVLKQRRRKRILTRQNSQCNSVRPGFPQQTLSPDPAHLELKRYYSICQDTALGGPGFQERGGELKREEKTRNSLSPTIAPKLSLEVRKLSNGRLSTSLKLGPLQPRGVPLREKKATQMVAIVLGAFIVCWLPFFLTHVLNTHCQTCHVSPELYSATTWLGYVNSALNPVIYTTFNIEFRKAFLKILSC

Turning to `Cc1ccc(CNCC2(F)CCN(C(=O)c3cccs3)CC2)nc1` [Example E1], the Ki in test [1] is above 5 µM; in test [2], above 5 µM; in test [3], above 5 µM; in test [4], above 5 µM; in test [5], below 0.05 µM; in test [6] (setting [9]) it was above 5 µM. Also, in test [7], the Ki is above 5 µM. Moreover, the “5-HT1A stimulated [35S]GTPγS binding intrinsic effect” value in test [8] is “D (D=full agonist (>75%))”. In addition, the EC50 in test [8] is below 0.05 µM.
Take `Cc1ccc(CNCC2(F)CCN(C(=O)c3sccc3Cl)CC2)nc1` [Example E3, 3-Chlorothien-2-yl-[4-fluoro-4-[[(5-methylpyridin-2-ylmethyl)amino]methyl]-piperidin-1-yl]-methanone]: the Ki in test [1] was above 5 µM; in test [2], above 5 µM; in test [3], above 5 µM; in test [4] it was 0.501 to 5 µM; in test [5], below 0.05 µM; in test [6] (setting [9]), above 5 µM. Moreover, the inhibition constant (Ki) in test [7] lay within 0.501 to 5 µM. Besides, the “5-HT1A stimulated [35S]GTPγS binding intrinsic effect” value in test [8] is “D (D=full agonist (>75%))”. Besides, the 50% effective concentration (EC50) in test [8] was below 0.05 µM.
`Cc1ccc(CNCC2(F)CCN(C(=O)c3sc(Br)c4c3OCCO4)CC2)nc1` [Example E30, 7-Bromo-2,3-dihydrothieno[3,4-b][1,4]dioxin-5-yl-[4-fluoro-4-[[5-methylpyridin-2-ylmethyl)aminolmothyl]piperidin-1-yl]-methanone]: the Ki in test [1] is above 5 µM; in test [2], above 5 µM; in test [3], 0.501 to 5 µM; in test [4], 0.501 to 5 µM; in test [5], below 0.05 µM; in test [6], above 5 µM. In addition, in test [7], the inhibition constant (Ki) fell in the range of 0.501 to 5 µM.
With `Cc1ccc(CNCC2(F)CCN(C(=O)c3ccco3)CC2)nc1` [Example E31, [4-Fluoro-4-[[(5-methylpyridin-2-ylmethyl)amino]methyl]piperidin-1-yl]-furan-2-yl-methanone], the inhibition constant (Ki) in test [1] was above 5 µM; in test [2], above 5 µM; in test [3], above 5 µM; in test [4] it was above 5 µM; in test [5], 0.05 to 0.5 µM; in test [6] (setting [9]) it was above 5 µM. Further, in test [7], the Ki was above 5 µM.
For `Cc1ccc(CNCC2(F)CCN(C(=O)c3ccoc3)CC2)nc1` [Example E33, [4-Fluoro-4-[[(5-methylpyridin-2-ylmethyl)amino]methyl]piperidin-1-yl]-furan-3-yl-methanone], the Ki in test [1] is above 5 µM; in test [2], above 5 µM; in test [3], above 5 µM; in test [4], above 5 µM; in test [5] it was 0.05 to 0.5 µM; in test [6] (setting [9]), above 5 µM. Also, the Ki in test [7] is above 5 µM.
`Cc1ccc(CNCC2(F)CCN(C(=O)c3coc(Br)c3)CC2)nc1` [Example E34, 5-Bromofuran-3-yl-[4.fluoro-4-[[(5-methylpyridin-2-ylmethyl)amino]methyl]piperidin-1-yl]-methanone]: the inhibition constant (Ki) in test [1] was above 5 µM; in test [2], above 5 µM; in test [3], above 5 µM; in test [4], 0.501 to 5 µM; in test [5] it was below 0.05 µM; in test [6] it was above 5 µM. Besides, the inhibition constant Ki in test [7] fell in the range of 0.501 to 5 µM.
For `Cc1ccc(CNCC2(F)CCN(C(=O)c3cc4ccccc4o3)CC2)nc1` [Example E35, Benzo[b]furan-2-yl-[4-fluoro-4-[[(5-methylpyridin-2-ylmothyl)amino]methyl]piperidin-1-yl]-methanone], the Ki in test [1] was above 5 µM; in test [2] it was above 5 µM; in test [3], above 5 µM; in test [4], 0.501 to 5 µM; in test [5], 0.05 to 0.5 µM; in test [6], above 5 µM. In addition, the Ki in test [7] was 0.501 to 5 µM.
As for `Cc1ccc(CNCC2(F)CCN(C(=O)c3cc4ccccn4n3)CC2)nc1` [Example E42], the Ki is above 5 µM in test [1]; above 5 µM in test [2]; above 5 µM in test [3]; above 5 µM in test [4]; 0.05 to 0.5 µM in test [5]; above 5 µM in test [6]. The Ki in test [7] is above 5 µM.
As to `Cc1ccc(CNCC2(F)CCN(C(=O)c3cnn4ccccc34)CC2)nc1` [Example E43, [4-Fluoro-4-[[(5-methylpyridin-2-ylmethyl)amino]methyl]piperidin-1-yl]-pyrazolo[1,5-a]pyridin-3-yl-methanone], the inhibitory constant (Ki) in test [1] was above 5 µM; in test [2], above 5 µM; in test [3], above 5 µM; in test [4] it was above 5 µM; in test [5], 0.05 to 0.5 µM; in test [6] (setting [9]), above 5 µM. Besides, the Ki in test [7] lay within 0.501 to 5 µM.
In the case of “[4-Fluoro-4-[[(5-methylpyridin-2-ylmethyl)amino]methyl]piperidin-1-yl]-indol-2-yl-methanone [Example E41]”, the Ki was above 5 µM in test [1]; above 5 µM in test [2]; 0.501 to 5 µM in test [3]; 0.501 to 5 µM in test [4]; 0.05 to 0.5 µM in test [5]; above 5 µM in test [6] (setting [9]). The Ki in test [7] lay in the range of 0.501 to 5 µM.
